Test results from PubChem BioAssay AID328 (DTP/NCI, 2004).
Values joined by “and” are separate entries in the source; they are usually repeats but may differ in a detail not shown here. Equal values may be shown once. Toxic doses and inconclusive results are not listed. Residues, ends and D or L forms follow the SMILES beside them. *: point of attachment. Trt = c1ccc(C(c2ccccc2)(c2ccccc2)*)cc1; Boc = CC(C)(C)OC(=O)*

Test system: BDF1 mice, P388 leukemia ip, median survival T/C
Test: NCI In Vivo Anticancer Drug Screen. Data for tumor model P388 Leukemia (intraperitoneal) in B6D2F1 (BDF1) mice
Details: endpoint: median survival time, higher = longer survival
Method in brief: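 Mice carrying the transplantable tumour receive compound or vehicle. Survival is followed in each arm, and the treated measure is divided by the vehicle measure.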

[1] = dose: 100.0 mg/kg/injection, schedule: Q01DX009 (ip), vehicle: Klucel (hydroxypropylcellulose) (HPC)
[2] = dose: 200.0 mg/kg/injection, schedule: Q01DX009 (ip), vehicle: Klucel (hydroxypropylcellulose) (HPC)
[3] = dose: 400.0 mg/kg/injection, schedule: Q01DX009 (ip), vehicle: Klucel (hydroxypropylcellulose) (HPC)
[4] = dose: 100.0 mg/kg/injection, schedule: Q04DX003 (ip), vehicle: saline with Tween-80
[5] = dose: 200.0 mg/kg/injection, schedule: Q04DX003 (ip), vehicle: saline with Tween-80
[6] = dose: 400.0 mg/kg/injection, schedule: Q04DX003 (ip), vehicle: saline with Tween-80
[7] = dose: 50.0 mg/kg/injection, schedule: Q04DX003 (ip), vehicle: saline with Tween-80
[8] = dose: 100.0 mg/kg/injection, schedule: Q04DX003 (ip), vehicle: Klucel (hydroxypropylcellulose) (HPC)
[9] = dose: 400.0 mg/kg/injection, schedule: Q04DX003 (ip), vehicle: Klucel (hydroxypropylcellulose) (HPC)
[10] = dose: 50.0 mg/kg/injection, schedule: Q01DX009 (ip), vehicle: saline with Tween-80
[11] = dose: 100.0 mg/kg/injection, schedule: Q01DX009 (ip), vehicle: saline with Tween-80
[12] = dose: 200.0 mg/kg/injection, schedule: Q01DX009 (ip), vehicle: saline with Tween-80
[13] = dose: 25.0 mg/kg/injection, schedule: Q04DX003 (ip), vehicle: saline
[14] = dose: 50.0 mg/kg/injection, schedule: Q04DX003 (ip), vehicle: saline
[15] = dose: 100.0 mg/kg/injection, schedule: Q04DX003 (ip), vehicle: saline
[16] = dose: 200.0 mg/kg/injection, schedule: Q04DX003 (ip), vehicle: Klucel (hydroxypropylcellulose) (HPC)
[17] = dose: 50.0 mg/kg/injection, schedule: Q01DX009 (ip), vehicle: Klucel (hydroxypropylcellulose) (HPC)
[18] = dose: 12.5 mg/kg/injection, schedule: Q01DX009 (ip), vehicle: Klucel (hydroxypropylcellulose) (HPC)
[19] = dose: 25.0 mg/kg/injection, schedule: Q01DX009 (ip), vehicle: Klucel (hydroxypropylcellulose) (HPC)

SMILES: CCC/C(=C\C(=O)O)CC
- T/C [1]: 109 % of control
- T/C [2]: 100 % of control
- T/C [3]: 104 % of control

SMILES: O=C1NC(c2ccccc2Cl)Nc2ccccc21 (centres undefined)
- T/C [1]: 100 % of control and 115 % of control
- T/C [2]: 115 % of control and 120 % of control

SMILES: CCCCCC(CN(C)C)C(=O)/C=C\c1ccc(Cl)cc1Cl (centres undefined)
- T/C (dose: 8.0 mg/kg/injection, schedule: Q01DX009 (ip), vehicle: saline): 122 % of control
- T/C (dose: 12.0 mg/kg/injection, schedule: Q01DX009 (ip), vehicle: saline): 122 % of control
- T/C (dose: 18.0 mg/kg/injection, schedule: Q01DX009 (ip), vehicle: saline): 122 % of control

SMILES: NC(CSCc1ccccc1)(CSCc1ccccc1)C(=O)O
- T/C (dose: 12.5 mg/kg/injection, schedule: Q01DX009 (ip), vehicle: other): 103 % of control
- T/C (dose: 25.0 mg/kg/injection, schedule: Q01DX009 (ip), vehicle: other): 122 % of control
- T/C (dose: 50.0 mg/kg/injection, schedule: Q01DX009 (ip), vehicle: other): 97 % of control and 110 % of control
- T/C (dose: 100.0 mg/kg/injection, schedule: Q01DX009 (ip), vehicle: other): 117 % of control
- T/C (dose: 200.0 mg/kg/injection, schedule: Q01DX009 (ip), vehicle: other): 96 % of control
- T/C (dose: 400.0 mg/kg/injection, schedule: Q01DX009 (ip), vehicle: other): 94 % of control

SMILES: CCCCCCC(=O)/C=C/c1ccc(Cl)c(Cl)c1
- T/C (dose: 75.0 mg/kg/injection, schedule: Q01DX009 (ip), vehicle: saline with Tween-80): 106 % of control
- T/C (dose: 150.0 mg/kg/injection, schedule: Q01DX009 (ip), vehicle: saline with Tween-80): 98 % of control
- T/C (dose: 300.0 mg/kg/injection, schedule: Q01DX009 (ip), vehicle: saline with Tween-80): 93 % of control

SMILES: CCOC(=O)C/C(C)=N/NC(=O)CC(=O)N/N=C(\C)CC(=O)OCC
- T/C (dose: 75.0 mg/kg/injection, schedule: Q01DX009 (ip), vehicle: saline): 109 % of control
- T/C (dose: 150.0 mg/kg/injection, schedule: Q01DX009 (ip), vehicle: saline): 105 % of control
- T/C (dose: 300.0 mg/kg/injection, schedule: Q01DX009 (ip), vehicle: saline): 103 % of control

SMILES: Cc1ccc(C(=O)C2C(c3ccccc3)N2Cc2ccccc2)cc1 (centres undefined)
- T/C [4]: 94 % of control and 99 % of control
- T/C [5]: 109 % of control and 92 % of control
- T/C [6]: 99 % of control and 87 % of control

SMILES: CC(C)=NNS(=O)(=O)c1ccccc1
- T/C [7]: 95 % of control
- T/C [4]: 90 % of control
- T/C [5]: 95 % of control

SMILES: Nc1ccc2ccccc2c1N=Nc1ccc(C(O)C(N)CO)cc1 (centres undefined)
- T/C (dose: 6.25 mg/kg/injection, schedule: Q01DX009 (ip), vehicle: saline sonified): 100 % of control
- T/C (dose: 12.5 mg/kg/injection, schedule: Q01DX009 (ip), vehicle: saline sonified): 112 % of control
- T/C (dose: 25.0 mg/kg/injection, schedule: Q01DX009 (ip), vehicle: saline sonified): 100 % of control

SMILES: COc1ccc(C=O)c(O)c1
- T/C [1]: 90 % of control
- T/C [8]: 92 % of control
- T/C [2]: 104 % of control
- T/C [3]: 90 % of control
- T/C [9]: 96 % of control

SMILES: CC(=O)Nc1ccc(S(=O)(=O)c2ccc([N+](=O)[O-])cc2)cc1
- T/C [7]: 101 % of control
- T/C [4]: 106 % of control
- T/C [5]: 105 % of control
- T/C [6]: 99 % of control

SMILES: CC(C)N(CC#N)C(C)C
- T/C (dose: 0.25 mg/kg/injection, schedule: Q04DX003 (ip), vehicle: saline with Tween-80): 91 % of control
- T/C (dose: 0.5 mg/kg/injection, schedule: Q04DX003 (ip), vehicle: saline with Tween-80): 101 % of control

SMILES: C[CH2][Ge]([CH2]C)[CH2]C.C[CH2][Ge]([CH2]C)[CH2]C.C[CH2][Ge]([CH2]C)[O][Ge]([CH2]C)[CH2]C
- T/C [10]: 115 % of control and 116 % of control
- T/C [11]: 112 % of control

SMILES: O=C(OC1c2ccccc2C2CC21)c1cc([N+](=O)[O-])cc([N+](=O)[O-])c1 (centres undefined)
- T/C [10]: 100 % of control
- T/C [11]: 104 % of control
- T/C [12]: 104 % of control

SMILES: NC1CCC1N (centres undefined)
- T/C (dose: 50.0 mg/kg/injection, schedule: Q01DX001 (ip), vehicle: saline): 110 % of control
- T/C (dose: 100.0 mg/kg/injection, schedule: Q01DX001 (ip), vehicle: saline): 105 % of control
- T/C (dose: 200.0 mg/kg/injection, schedule: Q01DX001 (ip), vehicle: saline): 105 % of control

SMILES: C=CCN(C)/N=N/c1[nH]ncc1C(N)=O
- T/C [10]: 104 % of control
- T/C [7]: 104 % of control
- T/C [4]: 109 % of control
- T/C [12]: 87 % of control
- T/C [5]: 109 % of control

SMILES: OCCCC1CCCCN1 (centres undefined)
- T/C [13]: 115 % of control
- T/C [14]: 100 % of control
- T/C [15]: 105 % of control

SMILES: CC(C)(C)OC(=O)NCCCCC(NC(=O)CNC(=O)C(CSC(c1ccccc1)(c1ccccc1)c1ccccc1)NC(=O)OC(C)(C)C)C(=O)O (centres undefined) (Boc-Cys(Trt)-Gly-Lys(Boc)-OH; configuration not given here)
- T/C [13]: 100 % of control
- T/C [14]: 104 % of control
- T/C [15]: 104 % of control

SMILES: Cc1ccc(S(=O)(=O)N(CC(=O)O)c2cccc(Cl)c2)cc1
- T/C [1]: 100 % of control
- T/C [8]: 100 % of control
- T/C [2]: 100 % of control
- T/C [16]: 104 % of control
- T/C [3]: 104 % of control
- T/C [9]: 100 % of control

SMILES: S=c1nc[nH]c2ccccc12
- T/C [8]: 109 % of control
- T/C [16]: 122 % of control
- T/C [9]: 109 % of control

SMILES: BrCC(Br)CBr
- T/C [10]: 104 % of control
- T/C [7]: 100 % of control
- T/C [11]: 122 % of control
- T/C [4]: 100 % of control
- T/C [5]: 104 % of control

SMILES: ClC(Cl)C(Cl)(Cl)C(Cl)(Cl)Cl
- T/C [17]: 91 % of control
- T/C (dose: 50.0 mg/kg/injection, schedule: Q04DX003 (ip), vehicle: Klucel (hydroxypropylcellulose) (HPC)): 104 % of control
- T/C [1]: 95 % of control
- T/C [8]: 109 % of control
- T/C [2]: 100 % of control
- T/C [16]: 109 % of control

SMILES: COC(=O)c1cc(=O)nc(N/N=C/c2ccc(C)cc2)s1
- T/C (dose: 50.0 mg/kg/injection, schedule: Q01DX005 (ip), vehicle: saline with Tween-80): 94 % of control
- T/C (dose: 100.0 mg/kg/injection, schedule: Q01DX005 (ip), vehicle: saline with Tween-80): 89 % of control
- T/C (dose: 200.0 mg/kg/injection, schedule: Q01DX005 (ip), vehicle: saline with Tween-80): 99 % of control

SMILES: CCCCCCCCCCCCCCSC(CC(=O)O)C(=O)NNC(N)=S (centres undefined)
- T/C (dose: 87.5 mg/kg/injection, schedule: Q01DX009 (ip), vehicle: saline with Tween-80): 101 % of control
- T/C (dose: 175.0 mg/kg/injection, schedule: Q01DX009 (ip), vehicle: saline with Tween-80): 101 % of control
- T/C (dose: 350.0 mg/kg/injection, schedule: Q01DX009 (ip), vehicle: saline with Tween-80): 113 % of control

SMILES: COc1cc(OC)c2c[n+](C)c3c4cc(OC)c(OC)cc4ccc3c2c1
- T/C (dose: 6.25 mg/kg/injection, schedule: Q01DX009 (ip), vehicle: Klucel (hydroxypropylcellulose) (HPC)): 154 % of control
- T/C [18]: 154 % of control and 169 % of control
- T/C [19]: 170 % of control and 172 % of control
- T/C [17]: 155 % of control and 180 % of control

SMILES: CS(=O)CC(O)(c1ccccc1)c1ccccn1 (centres undefined)
- T/C [10]: 103 % of control
- T/C [11]: 110 % of control
- T/C [12]: 100 % of control

SMILES: CN(C)c1ccc2c(N(C)C)cc(N(C)C)nc2c1
- T/C [18]: 111 % of control
- T/C [19]: 89 % of control
- T/C [17]: 120 % of control

SMILES: CC(=O)Oc1c(Br)c(-c2cc([N+](=O)[O-])c(C)c([N+](=O)[O-])c2C)c(OC(C)=O)c(Br)c1-c1cc([N+](=O)[O-])c(C)c([N+](=O)[O-])c1C
- T/C (dose: 50.0 mg/kg/injection, schedule: Q01DX001 (ip), vehicle: Klucel (hydroxypropylcellulose) (HPC)): 112 % of control
- T/C (dose: 100.0 mg/kg/injection, schedule: Q01DX001 (ip), vehicle: Klucel (hydroxypropylcellulose) (HPC)): 115 % of control
- T/C (dose: 200.0 mg/kg/injection, schedule: Q01DX001 (ip), vehicle: Klucel (hydroxypropylcellulose) (HPC)): 115 % of control
- T/C (dose: 400.0 mg/kg/injection, schedule: Q01DX001 (ip), vehicle: Klucel (hydroxypropylcellulose) (HPC)): 106 % of control
